Here are results for three compounds from US20250288600A1, “USES OF FARNESOID X RECEPTOR AGONISTS” (priority 2022, published 2025).

Structures are written as SMILES. Entries after “also recorded” stand apart in the source; their conditions may differ.

For data set [1], the system named is mouse model of alcoholic steatohepatitis. The data set can be described thus: Mouse model of alcoholic steatohepatitis (ALD), Lieber-DeCarli ethanol diet, oral dosing Day 1-14. It is filed as in vivo. The settings on record: for fibrosis as analyzed by Pico Sirius Red: 30 mpk, no fibrosis at baseline or in the vehicle group; for serum bile acids: versus vehicle treated ALD mice. From the text:
The objective of this study was to assess efficacy of the test articles obeticholic acid (OCA), Compound 1 and Compound 2 on liver and intestinal pathology in a mouse model of alcoholic steatohepatitis.
• Species: Mouse • Strain: C57BL/6J (JAX #000664) • Condition: Purpose-bred, naïve • Source: Jackson Laboratories • Number of Females: 138 (119 on study+19 spares) • Target Age at the 10 weeks
Diet: 5CR4 chow until Day −26; Lieber-DeCarli liquid diet Days […] to Day 15. Upon arrival at the Testing Facility, all animals were placed on PMI Nutrition International Certified Rodent Chow No. 5CR4 ad libitum. During the chow diet phase (until Day −26), the diet in meal form may be provided to individual animals as warranted by clinical signs (e.g., broken/damaged incisors or other health changes).
On Day −26, all animals received 50 mL ethanol diet (1% v/v ethanol). The percentage of alcohol in the liquid diet was increased by 1% v/v every day until reaching 5% (v/v) on day −22 and is maintained at 5% v/v until the end of the study.
Dose Route and timing: Oral Gavage (Group 2-7) Once Daily (Day 1-14). The first day of dosing was designated as Day 1. The dose formulations were stirred continuously during dosing. The doses were given using a syringe with attached gavage cannula.
Terminal plasma and tissue samples were gathered. Plasma was analyzed for TG, TC, ALT, AST, ALP, FGF15 (LCMS), TBIL, and endotoxin.
Frozen liver samples from main study were analyzed in duplicates for the estimation of liver lipids including triglycerides and cholesterol. Liver samples were kept on dry ice until transferred to sample management and stored in a freezer set to maintain […] until analysis.
The liver and small intestine collected from all animals in Groups 1-7 (Main Study) were fixed in 10% neutral buffered formalin for 24-48 hours and transferred to 70% EtOH, stored under ambient conditions and transferred to the histopathology lab at Testing Facility.
Formalin fixed liver tissues were trimmed to slides and stained with H&E and picrosirius red stains. Slides were scored by Charles River board certified veterinarian pathologists.
Formalin fixed small intestine tissues were trimmed to slides and stained with H&E and IHC antibodies (PV-1, ZO-1 and Occludin). Slides were scored by board certified veterinarian pathologists.

Another data set deals with dogs. The data set can be described thus: Respiratory function safety pharmacology in dogs. The settings on record: single doses up to 300 mg/kg.
For data set [2] the following is noted: promptly secreted in the bile mostly as such; cited from earlier work.
For data set [3] the following is noted: higher than OCA; cited from earlier work.
For data set [4] the following is noted: like ursodeoxycholic acid; cited from earlier work.
Another data set relates to male rats. Briefly: Irwin study (neurologic function). The settings on record: tested up to 180 mg/kg.
Another data set relates to healthy subjects. The data set can be described thus: Phase 1 dose-escalation study in healthy subjects.
Another data set concerns the target T1, TGR5 (Homo sapiens, UniProt Q8TDU6).
T1 sequence (Q8TDU6 1-330): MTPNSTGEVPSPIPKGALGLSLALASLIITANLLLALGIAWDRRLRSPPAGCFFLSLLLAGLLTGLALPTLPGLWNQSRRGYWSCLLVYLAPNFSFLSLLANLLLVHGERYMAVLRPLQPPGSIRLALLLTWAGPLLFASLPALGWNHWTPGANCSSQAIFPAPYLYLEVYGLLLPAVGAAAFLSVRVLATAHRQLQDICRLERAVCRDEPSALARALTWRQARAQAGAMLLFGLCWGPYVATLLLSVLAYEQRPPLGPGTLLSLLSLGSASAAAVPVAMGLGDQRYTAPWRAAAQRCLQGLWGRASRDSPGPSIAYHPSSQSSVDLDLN
As to conditions: cited from earlier work.

In the case of `CC[C@H]1[C@@H](O)[C@@H]2[C@H]([C@@H](O)C[C@]3(C)[C@@H]([C@H](C)CCC(=O)O)CC[C@@H]23)[C@@]2(C)CC[C@@H](O)C[C@@H]12` [Compound 1, 3a,7a,11β-trihydroxy-6α-ethyl-5β-cholan-24-oic acid], the “survival (in words)” value in data set [1] (10 mg/kg and 30 mg/kg groups) is “improved survival better than OCA; also recorded: greatly improved survival”. The “steatosis (graded 1-5 by a pathologist)” value in data set [1] (10 mpk group, liver histology) was “close to statistical significance”. Besides, the “fibrosis as analyzed by Pico Sirius Red” value in data set [1] was “minimal increase in fibrosis”. The serum bile acids entry in data set [1] (both doses) is listed as “significantly lowered”. In the data set with dogs, the respiratory function result is listed as “not affected”. In addition, the hepatic residence time result in data set [2] is “very low”. The “water solubility relative to obeticholic acid (OCA)” value in data set [3] is given as 16 fold. In data set [4], the critical micellular concentration result was “high”. For the same compound, the neurologic function entry in the data set with male rats is “did not alter neurologic function”. In the data set with healthy subjects (5 mg once daily for 14-days), the tolerability result was “well tolerated”. For the same compound, the adverse events entry in the data set on healthy subjects (doses less than 50 mg, single or repeat doses, healthy subjects) was “no AEs of clinical concern”.

As to `CC[C@H]1[C@@H](O)C2C3CC[C@H]([C@H](C)CCC(=O)O)[C@@]3(C)C[C@H](O)C2[C@@]2(C)CCCC[C@@H]12` (stereo partly drawn) [Compound 2], the “fibrosis as analyzed by Pico Sirius Red” value in data set [1] was “minimal increase in fibrosis”. Besides, the serum bile acids entry in data set [1] (high dose) was “significantly lowered”. For the same compound, in data set [1] (terminal plasma), the bilirubin result is “decreased” and the “serum ALP” value is listed as “increased”. Further, on TGR5, the “activity on TGR5” value was “no activity”.

Consider `CC[C@H]1[C@@H](O)[C@@H]2[C@H](CC[C@]3(C)[C@@H]([C@H](C)CCC(=O)O)CC[C@@H]23)[C@@]2(C)CC[C@@H](O)C[C@@H]12` [OCA, obeticholic acid, reference compound], for which the “fibrosis as analyzed by Pico Sirius Red” value in data set [1] is reported as “minimal increase in fibrosis”. In data set [1] (Dose 30 mkd, PO QD Day 1-14, includes animals for PK), the “% Alive” value was 53%.
